Measurements taken from patent US8883827B2, “Azole derivatives as WTN pathway inhibitors” (Oslo University Hospital HF, priority 2009, dated 2014).

What was measured:
Assay type in all cases: cell-based
canonical Wnt signaling [1] = assay: ST-Luc (SuperTOPFlash) Luciferase assay in HEK293 cells, 30% Wnt3a-CM; conditions: Homo sapiens, HEK293; 10 μM compound, 30% Wnt3a-CM, 24 h; relative to DMSO control
Description: Inhibition of Wnt signaling by compound No. 1 was quantified in vitro using a Luciferase assay in HEK293 cells transiently transfected with SuperTOPFlash plasmid (ST-Luc) (Veeman M T et al., Curr. Biol. 13: 680-685, 2003) at concentrations from 0.1-10 μM. HEK293 cells were purchased from ATCC (American Type Culture Collection) and maintained according to suppliers recommendations.
Transfection was performed using 80000 HEK293 cells seeded in 48-well plates coated with poly-L lysine. After 24 hours, 0.25 μg total plasmid DNA (0.23 μg SuperTOPFlash+0.02 μg pRL-TK (Renilla)—Promega) and 0.75 μl FuGENE6 (Roche) was combined in a total volume in 25 μl Opti-MEM® (Invitrogen) as described by the manufacturer (Roche). The transfection mixture was added to the plated cells and media were changed after 24 hours.
The Luciferase assay was performed by incubating transfected cells for 24 hours with various concentrations of compound No. 1 in 30% Wnt3a-CM (Wnt3a containing conditioned medium from L Wnt3a cells was harvested as described by ATCC). All treated reporter cells were finally lysed and the firefly luciferase and Renilla activities were measured on a 20/20n Luminometer (Turner BioSystems) as described in the Dual-Glo™ Luciferase Assay System Technical Manual (Promega).
HEK293 cells were transfected, grown and assayed as described in Example 22. 24 hours after seeding, the cells were incubated for an additional 24 hours with 10 μM concentrations of compounds in 30% Wnt3a-CM.
The percent activities shown in Table 3 are calculated relative to DMSO as a control. Some values shown are averages of multiple measurements. Compound XAV939 (Novartis; Huang et al., Nature (2009), 461, pp. 614-20) which is used as a positive control, has an activity of 7%.

canonical Wnt signaling [2] = assay: IC50 in STF/REN HEK293 cells, 50% Wnt3a-CM; conditions: Homo sapiens; STF/REN HEK293, 50% Wnt3a-CM, 24 h
Description: IC50 values were calculated using STF/REN HEK293 cells prepared essentially according to Example 22. Briefly, HEK293 cells (80,000 cells per well) were seeded in 48-well plates coated with poly-L lysine. 24 hours after seeding, the cells were incubated for an additional 24 hours with various compound concentrations in 50% Wnt3a-CM. After compound exposure, the cells were lysed and the firefly luciferase and Renilla activities were measured on a 20/20n Luminometer (Turner BioSystems) as described in the Dual-Glo™ Luciferase Assay System Technical Manual (Promega).
XLfit (idbs) was used to determine the IC50 and GI50 values in inhibition experiments. The data were fit to the following formulae:
IC50: Langmuir Binding Isotherm: fit=((A+(B*x))+(((C−B)*(1−exp((−1*D)*x)))/D)) res=(y−fit)

[3] = test system: SW480 colon carcinoma cells; assay: MTS cell proliferation assay, Table 5; conditions: Homo sapiens; SW480, 10 μM, 72 h; relative to DMSO control; read-out: Cell proliferation (%) for test compounds
Description: For the experiment giving the results shown in Table 5, cells (3000 per well) were seeded on 96 well plates (eight replicates per treatment). After 24 hours, and daily thereafter, cell culture medium (including 10% FBS) was mixed with 10 μM compounds or with 0.1% DMSO vehicle and then added to the wells. Sixteen wells of seeded control cells, defining incubation time zero (t0=24 hour after cell seeding), were incubated with 20 μl substrate in 100 μl phenol free D-MEM (Invitrogen) for 2 hours, as described in the CellTiter 96® AQueous Non-Radioactive Cell Proliferation Assay protocol (Promega). The A490 was recorded. The treatment samples were likewise measured after 72 hours.
The quantity of reduced MTS product (as measured by the absorbance at 490 nm) is directly proportional to the number of living cells in the culture and thus allows a direct comparison of cell proliferation in each case. DMSO was used as a control. The following formula was used to determine single well relative A490 sample values: ((Sample A490−Average A490t0)*100)/(Average A490t720.1% DMSO control−Average A490t0)
The proliferation of SW480 cells (in percent) is the A492 value relative to that of the DMSO control.

SMILES	IC50 (canonical Wnt signaling [2]) [nM]	activity at 10 µM (canonical Wnt signaling [1]) [%]	activity at 10 µM [3] [%]
Clc1cc(Cl)cc(-c2nnc(CSc3nnc(-c4ccncc4)n3-c3ccccc3Cl)o2)c1 [compound 117, 4-(5-((5-(3,5-dichlorophenyl)-1,3,4-oxadiazol-2-yl)methylthio)-4-(2-chlorophenyl)-4H-1,2,4-triazol-3-yl)pyridine]	834	9	85
Cc1ccc(-c2nnc(CSc3nnc(-c4ccc(Cl)cc4Cl)n3-c3ccccc3Cl)o2)cc1 [compound 112, 3-((5-p-tolyl-1,3,4-oxadiazol-2-yl)methylthio)-5-(2,4-dichlorophenyl)-4-(2-chlorophenyl)-4H-1,2,4-triazole]	688	0.3	39
Clc1ccc(-c2nnc(CSc3nnc(-c4ccncc4)n3-c3ccccc3Cl)o2)c(Cl)c1 [compound 114, 4-(5-((5-(2,4-dichlorophenyl)-1,3,4-oxadiazol-2-yl)methylthio)-4-(2-chlorophenyl)-4H-1,2,4-triazol-3-yl)pyridine]	795	4.2	69
Cc1ccc(-c2nnc(CSc3nnc(-c4ccc(F)cc4F)n3-c3ccccc3Cl)o2)cc1 [compound 110, 3-((5-p-tolyl-1,3,4-oxadiazol-2-yl)methylthio)-4-(2-chlorophenyl)-5-(2,4-difluorophenyl)-4H-1,2,4-triazole]	872	2	50
Cc1ccc(-c2nnc(CSc3nnc(-c4ccc(F)cc4)n3-c3ccccc3Cl)o2)cc1 [compound 115, 3-((5-p-tolyl-1,3,4-oxadiazol-2-yl)methylthio)-4-(2-chlorophenyl)-5-(4-fluorophenyl)-4H-1,2,4-triazole]		5	60
Cc1ccc(-c2nnc(S[C@H](C)c3nnc(-c4ccncc4)n3-c3ccccc3Cl)o2)cc1 [100b]		5	66

Further compounds by falling IC50 (canonical Wnt signaling [2]), results first:

IC50 (canonical Wnt signaling [2]) [nM]	SMILES	activity at 10 µM (canonical Wnt signaling [1]) [%]	activity at 10 µM [3] [%]
551	Cc1ccc(-c2nnc(CSc3nnc(-c4ccncc4)n3-c3ccccc3Cl)o2)c(Br)c1 [compound 72]	20	55
381	Cc1ccc(-c2nnc(CSc3nnc(-c4ccncc4)n3-c3ccccc3Cl)o2)cn1 [compound 68]	17	60
262	Cc1ccc(-c2nnc(CSc3nnc(-c4ccnc(O)c4)n3-c3ccccc3Cl)o2)cc1 [compound 116, 4-(5-((5-p-tolyl-1,3,4-oxadiazol-2-yl)methylthio)-4-(2-chlorophenyl)-4H-1,2,4-triazol-3-yl)pyridin-2-ol]	7	70
218	Cc1ccc(-c2nnc(CSc3nnc(-c4ccc(Cl)nc4)n3-c3ccccc3Cl)o2)cc1 [Compound 108]	0.8	42
163	Cc1ccc(-c2nnc([C@@H](C)Sc3nnc(-c4ccncc4)n3-c3ccccc3Cl)o2)cc1 [99b]	12	72
151	Clc1ccc(-c2nnc(CSc3nnc(-c4ccncc4)n3-c3ccccc3Cl)o2)cc1Cl [compound 130, 4-(5-((5-(3,4-dichlorophenyl)-1,3,4-oxadiazol-2-yl)methylthio)-4-(2-chlorophenyl)-4H-1,2,4-triazol-3-yl)pyridine]	9	72
59	Clc1ccc(-c2nnc(CSc3nnc(-c4ccncc4)n3-c3ccccc3Cl)o2)cc1 [compound 113, 4-(5-((5-(4-chlorophenyl)-1,3,4-oxadiazol-2-yl)methylthio)-4-(2-chlorophenyl)-4H-1,2,4-triazol-3-yl)pyridine]	4.9	56
29	Cc1ccc(-c2nnc(CSc3nnc(-c4ccncn4)n3-c3ccccc3Cl)o2)cc1 [compound 105, 4-(5-((5-p-tolyl-1,3,4-oxadiazol-2-yl)methylthio)-4-(2-chlorophenyl)-4H-1,2,4-triazol-3-yl)pyrimidine]	4.4	54
